Laboratory results: patent US20250188092A1, “RIFAMYCIN ANALOGS” (THE REGENTS OF THE UNIVERSITY OF MICHIGAN, priority 2021, published 2025)
In brackets after ≈: the same amount, converted by molar mass. Where two headings read alike, the source gives them in different places.

Columns and labels:
[1] = test system: M. tuberculosis transformed with luxABCDE; assay: microbe, parasite or virus in culture; format: cell-based, Mycobacterium tuberculosis
[2] = target: β-S450L (RIF^R) MTB RNAP (Mycobacterium tuberculosis, UniProt P9WGY9, S456L); conditions: read-out: RNAP IC50 MTB S450L
[3] = test system: non-replicating cultures of M. tuberculosis H37Rv transformed with lux ABCDE; assay: microbe, parasite or virus in culture; format: cell-based, Mycobacterium tuberculosis; conditions: for MIC90: ≥90% reduction in luminescence, read-out: MIC90 LORA; for MIC90 LORA/MABA: ratio of LORA MIC90 to MABA MIC90
[4] = […], ≥99% reduction in luminescence, read-out: MBC99 Day 7 (Lux Assay) MBC
[5] = Mycobacterium tuberculosis, 168 h, […], ≥99% reduction in luminescence, read-out: MBC99 Day 7 (Lux Assay) MBC
[6] = Mycobacterium tuberculosis, H37RV

SMILES	MBC [1, 4] [µM]	IC50 [2] [µM]	MIC90 LORA Rel to RMP [3]	MIC90 [3] [µM]	MIC90 LORA/MABA [3]	MBC99 Day 7 (Lux Assay) MBC Rel to RMP [1]	MBC [1, 5] [µM]	MIC90 [3, 6] [µM]	MIC90 ([1]; Mycobacterium tuberculosis, 168 h, day 7 of time-kill study) [µM]	MBC ([1]; Mycobacterium tuberculosis, 168 h, day 7 of time-kill study, read-out: MBC99) [µM]	MIC90 LORA Rel to RMP ([3]; LORA MIC90 relative to rifampin (RMP = 1))
CO[C@H]1/C=C/O[C@@]2(C)Oc3c(C)c(O)c4c(=O)c(c5oc6cc(N7CCC(CC(=O)O)CC7)cc(OCc7ccc(CN8CCOCC8)cc7)c6nc-5c4c3C2=O)NC(=O)/C(C)=C\C=C\[C@H](C)[C@H](O)[C@@H](C)[C@@H](O)[C@@H](C)[C@H](OC(C)=O)[C@@H]1C [Compound 17l, 2-{1-[(7S,9E,11S,12R,13S,14R,15R,16R,17S,18S,19E,21Z)-13-(acetyloxy)-2,15,17-trihydroxy-11-methoxy-3,7,12,14,16,18,22-heptamethyl-32-{[4-(morpholin-4-ylmethyl)phenyl]methoxy}-6,23,37-trioxo-8,27,38-trioxa-24,34-diazahexacyclo-[23.11.1.1^4,7.0^5,36.0^26,35.0^28,33]octatriaconta-1,3,5(36)9,19,21,25,28,30,32,34-undecaen-30-yl]piperidin-4-yl)acetic acid]	>0.1	22	31	0.843 (≈ 0.954 µg/mL)	4.5						
CO[C@H]1/C=C/O[C@@]2(C)Oc3c(C)c(O)c4c(=O)c(c5oc6cc(N7CCN(C(=O)c8cccc(-c9ccccn9)c8)CC7)cc(OCc7ccc(CN8CCOCC8)cc7)c6nc-5c4c3C2=O)NC(=O)/C(C)=C\C=C\[C@H](C)[C@H](O)[C@@H](C)[C@@H](O)[C@@H](C)[C@H](OC(C)=O)[C@@H]1C [Compound 17r, (7S,9E,11S,12R,13S,14R,15R,16R,17S,18S,19E,21Z)-2,15,17-trihydroxy-11-methoxy-3,7,12,14,16,18,22-heptamethyl-32-{[4-(morpholin-4-ylmethyl)phenyl]methoxy}-6,23,37-trioxo-30-(4-{[3-(pyridin-2-yl)phenyl]carbonyl}piperazin-1-yl)-8,27,38-trioxa-24,34-diazahexacyclo[23.11.1.1^4,7.0^5,36.0^26,35.0^28,33]octatriaconta-1,3,5(36)9,19,21,25,28,30,32,34-undecaen-13-yl acetate]	0.205	77	2.60	0.13	5.7	0.46					
CO[C@H]1/C=C/O[C@@]2(C)Oc3c(C)c(O)c4c(=O)c(c5oc6cc(N7CCC(CC(=O)O)CC7)cc(N7CCC(CC(=O)O)CC7)c6nc-5c4c3C2=O)NC(=O)/C(C)=C\C=C\[C@H](C)[C@H](O)[C@@H](C)[C@@H](O)[C@@H](C)[C@H](OC(C)=O)[C@@H]1C [Compound 17v, 2-{1-[(7S,9E,11S,12R,13S,14R,15R,16R,17S,18S,19E,21Z)-13-(acetyloxy)-32-[4-(carboxymethyl)piperidin-1-yl]-2,15,17-trihydroxy-11-methoxy-3,7,12,14,16,18,22-heptamethyl-6,23,37-trioxo-8,27,38-trioxa-24,34-diazahexacyclo-[23.11.1.1^4,7.0^5,36.0^26,35.0^28,33]octatriaconta-1,3,5(36)9,19,21,25,28,30,32,34-undecaen-30-yl]piperidin-4-yl)acetic acid]	>0.1	66									
CO[C@H]1/C=C/O[C@@]2(C)Oc3c(C)c(O)c4c(=O)c(c5oc6cc(N7CCN(CC(C)C)CC7)cc(O)c6nc-5c4c3C2=O)NC(=O)/C(C)=C\C=C\[C@H](C)[C@H](O)[C@@H](C)[C@@H](O)[C@@H](C)[C@H](OC(C)=O)[C@@H]1C [RLZ, rifalazil, reference compound]			0.01		2.0	0.07	0.03 (≈ 0.0282 µg/mL)	0.0022 (≈ 0.00207 µg/mL)			
CO[C@H]1/C=C/O[C@@]2(C)Oc3c(C)c(O)c4c(O)c(c(/C=N/N5CCN(C)CC5)c(O)c4c3C2=O)NC(=O)/C(C)=C\C=C\[C@H](C)[C@H](O)[C@@H](C)[C@@H](O)[C@@H](C)[C@H](OC(C)=O)[C@@H]1C [RMP, rifampin, reference compound]					7.6	1	0.463 (≈ 0.381 µg/mL)	0.206 (≈ 0.17 µg/mL)	0.03 (≈ 0.0247 µg/mL)	0.463 (≈ 0.381 µg/mL)	1
